Laboratory results as given in patent publication US12257224B2, “Methods of administration for highly water-soluble salts of a short acting phenylalkylamine calcium channel blocker” (Milestone Pharmaceuticals Inc., priority 2021, dated 2025).

Method: Randomized, double-blind, placebo-controlled, ethnobridging PK/PD study, 35, 70 and 105 mg doses were evaluated.

Question: With `COC(=O)c1cccc(CCN(C)CCCC(C#N)(c2ccc(OC)c(OC)c2)C(C)C)c1` (stereo not shown) [compound I, methyl 3-(2-((4-cyano-4-(3,4-dimethoxyphenyl)-5-methylhexyl)(methyl)amino)ethyl)benzoate] as the molecule, how does the “time at which pharmacodynamic effect began to decrease” value (35, 70 and 105 mg doses) read?
Answer: 15 min

Question: What about the “time to increase of PR interval and HR” value (35, 70 and 105 mg doses) of the same molecule?
Answer: ≤ 10 min

Question: And the “duration of pharmacodynamic effect” value (duration of PR prolongation exceeding 10% from baseline)?
Answer: 30 to 45 min

Question: And the “exposure, dose proportionality” value (human, in vivo)?
Answer: increased in a dose proportional manner between 35 and 70 mg but not between the 70 and 105 mg doses
